Test results reported in the C3SDB collision cross section collection.
Structures can show the parent of a compound that is named as a salt.

Settings: instrument: DT, single field, calibrated with Agilent tune mix (Agilent)

collision cross section (N2) ([M-H]-) | collision cross section (N2) ([M+H]+) | Structure (SMILES) | further results
– | 162.2 Å² | N[C@@H](Cc1ccc(OP(=O)(O)O)cc1)C(=O)O [O-Phosphotyrosine] | collision cross section (N2) ([M+Na-2H]-): 149.33 Å²
176.13 Å² | 185.6 Å² | O=c1nc[nH]c2c1ncn2[C@@H]1O[C@H](COP(=O)(O)OP(=O)(O)O)[C@@H](O)[C@H]1O [Inosine diphosphate] | –
129.61 Å² | – | OC[C@H](O)[C@@H](O)[C@H](O)[C@@H](O)CO [L-Iditol] | collision cross section (N2) ([M+Na]+): 143 Å²
296.46 Å² | 296.2 Å² | CCCCCCCCCCCCCCCC(=O)SCCNC(=O)CCNC(=O)[C@H](O)C(C)(C)COP(=O)(O)OP(=O)(O)OC[C@H]1O[C@@H](n2cnc3c(N)ncnc32)[C@H](O)[C@@H]1OP(=O)(O)O [Palmitoyl CoA] | –
184.12 Å² | 188.3 Å² | Cc1cc2nc3c(=O)[nH]c(=O)nc-3n(C[C@H](O)[C@H](O)[C@H](O)CO)c2cc1C [Riboflavin (Vitamin B2)] | –
148.87 Å² | – | CCCCCCCCCCC(=O)O [Undecanoic Acid] | –
155.16 Å² | – | CCCCCCCCCCCCC(=O)O [Tridecanoic acid] | –
193.29 Å² | – | O=P(O)(O)OC1C(OP(=O)(O)O)C(OP(=O)(O)O)C(OP(=O)(O)O)C(OP(=O)(O)O)C1OP(=O)(O)O (stereo not given) [Myo-inositol hexakisphosphate] | –
205.39 Å² | – | C[C@H](CCC(=O)NCCS(=O)(=O)O)[C@H]1CC[C@H]2[C@@H]3[C@H](O)C[C@@H]4C[C@H](O)CC[C@]4(C)[C@H]3CC[C@]12C [Taurochenodeoxycholate] | collision cross section (N2) ([M+Na]+): 207.4 Å²
133.01 Å² | – | O=C(O)CNC(=O)c1ccccc1O [Salicyluric acid] | –
– | 170.1 Å² | CC1=C(/C=C/C(C)=C/C=C/C(C)=C/C=O)C(C)(C)CCC1 [Retinene] | –
– | 187.7 Å² | Nc1nc(=O)c2ncn([C@H]3C[C@H](O)[C@@H](COP(=O)(O)OP(=O)(O)O)O3)c2[nH]1 [dGDP] | –
– | 230.9 Å² | NC(=O)c1ccc[n+]([C@@H]2O[C@H](COP(=O)(O)OP(=O)(O)OC[C@H]3O[C@@H](n4cnc5c(N)ncnc54)[C@H](OP(=O)(O)O)[C@@H]3O)[C@@H](O)[C@H]2O)c1 [Nicotinamide adenine dinucleotide phosphate (NADP)] | –
121.6 Å² | – | NCCOP(=O)(O)O [O-Phosphoethanolamine] | –
146.34 Å² | 142.7 Å² | CC(=O)NCCCCNCCCN [N8-Acetylspermidine] | –
254.31 Å² | 252 Å² | CC(C)C(=O)SCCNC(=O)CCNC(=O)[C@H](O)C(C)(C)COP(=O)(O)OP(=O)(O)OC[C@H]1O[C@@H](n2cnc3c(N)ncnc32)[C@H](O)[C@@H]1OP(=O)(O)O [Isobutyryl-CoA] | –
– | 150.9 Å² | Cc1ncc(COP(=O)(O)O)c(CN)c1O [Pyridoxamine 5'-phosphate] | –

The next lines start with the molecule.

Structure (SMILES) | collision cross section (N2) ([M-H]-) | collision cross section (N2) ([M+H]+) | further results
O=P(O)(O)OC[C@H]1OC(O)[C@H](O)[C@@H](O)[C@@H]1O (stereo not given in full) [Glucose 6-phosphate] | – | – | collision cross section (N2) ([M+Na]+): 158.1 Å²
O=C(O)c1cccnc1C(=O)O [Quinolinate] | – | – | collision cross section (N2) ([M+H-H2O]+): 130.5 Å²
O=S(=O)(O)Oc1c[nH]c2ccccc12 [Indoxyl sulfate] | 140.6 Å² | – | –
CCCCC/C=C\C/C=C\C/C=C\CCCCC(=O)O [Gamma-Linolenic acid] | 172.84 Å² | – | –
COc1ccc2c(c1)[nH]c1c(C)nccc12 [Harmine] | 145.28 Å² | 146 Å² | –
O=C(O)C(O)c1ccc(O)c(O)c1 (stereo not given) [3,4-Dihydroxymandelic acid] | 135 Å² | – | collision cross section (N2) ([M+H-H2O]+): 132 Å²
CC(=O)[C@H]1CC[C@H]2[C@@H]3CCC4=CC(=O)CC[C@]4(C)[C@H]3[C@@H](O)C[C@]12C [11beta-Hydroxyprogesterone] | – | 182.3 Å² | collision cross section (N2) ([M-H2O-H]-): 180.95 Å²
CC(CCC(=O)O)CC(=O)O (stereo not given) [3-Methyladipic acid] | 129.01 Å² | – | –
O=C(O)CCCCC1CCSS1 (stereo not given) [Thioctic acid] | – | – | collision cross section (N2) ([M+H-H2O]+): 133.8 Å²
O=C(O)C(O)Cc1c[nH]c2ccccc12 (stereo not given) [Indolelactic acid] | 146.51 Å² | 143.8 Å² | –
C[C@H](NC(=O)CC[C@H](N)C(=O)O)C(=O)O [5-L-Glutamyl-L-alanine] | 140.25 Å² | 149.6 Å² | –
O=c1ccn([C@H]2C[C@H](O)[C@@H](CO)O2)c(=O)[nH]1 [2'-Deoxyuridine] | 145.91 Å² | – | collision cross section (N2) ([M+Na]+): 156 Å²
C[C@H](CCC(=O)NCC(=O)O)[C@H]1CC[C@H]2[C@@H]3[C@H](O)C[C@@H]4C[C@H](O)CC[C@]4(C)[C@H]3C[C@H](O)[C@]12C [Glycocholic acid] | 200.58 Å² | – | collision cross section (N2) ([M+Na]+): 202 Å²
COc1ccc2[nH]cc(C[C@H](N)C(=O)O)c2c1 [5-methoxytryptophan] | 154.36 Å² | – | collision cross section (N2) ([M+Na]+): 156.2 Å²
CC1CNC(=O)NC1=O (stereo not given) [Dihydrothymine] | – | 131.2 Å² | –
NC(=O)c1ccc[n+]([C@@H]2O[C@H](COP(=O)([O-])O)[C@@H](O)[C@H]2O)c1 [beta-Nicotinamide D-ribonucleotide] | – | – | collision cross section (N2) ([M]+): 165.2 Å²
O=C1CC(=O)NC(=O)N1 [Barbituric acid] | 112.69 Å² | – | –
Nc1ccn([C@@H]2O[C@H](COP(=O)(O)OP(=O)(O)O)[C@@H](O)[C@H]2O)c(=O)n1 [CDP] | – | 175.1 Å² | –
C[C@]12CCC(=O)C=C1CC[C@@H]1[C@@H]2[C@@H](O)C[C@@]2(C)[C@H]1CC[C@]2(O)C(=O)CO [Hydrocortisone (Cortisol)] | – | 189.1 Å² | –
N[C@@H](Cc1ccc(O)c(I)c1)C(=O)O [3-Iodo-L-tyrosine] | – | 158.8 Å² | collision cross section (N2) ([M+Na-2H]-): 148.03 Å²
N[C@H](CC(=O)O)C(=O)O [D-Aspartic acid] | 116.91 Å² | – | –
CC1=C(/C=C/C(C)=C/C=C/C(C)=C/CO)C(C)(C)CCC1=O [4-Oxoretinol] | – | – | collision cross section (N2) ([M+H-H2O]+): 173.3 Å²

Structure (SMILES) | collision cross section (N2) ([M-H]-) | collision cross section (N2) ([M+H]+) | further results
CCCCCCCC/C=C/CCCCCCCC(=O)O[C@H](COC(=O)CCCCCCCCCCCCCCC)COP(=O)([O-])OCC[N+](C)(C)C [2-Oleoyl-1-palmitoyl-sn-glycero-3-phosphocholine] | 272.17 Å² | 286.7 Å² | –
O=C(CO)[C@@H](O)[C@H](O)[C@H](O)COP(=O)(O)O [D-Fructose-6-phosphate] | – | – | collision cross section (N2) ([M+Na]+): 154.2 Å²
Nc1ncnc2c1ncn2[C@@H]1O[C@H](COP(=O)(O)OS(=O)(=O)O)[C@@H](OP(=O)(O)O)[C@H]1O [3'-Phosphoadenosine 5'-phosphosulfate] | 192.76 Å² | – | –
Nc1cccc(C(=O)O)c1O [3-Aminosalicylic acid] | 122.07 Å² | – | –
CC(=O)OP(=O)(O)O [Acetyl phosphate] | – | – | collision cross section (N2) ([M+Na]+): 142.7 Å²
C[C@]12CC[C@@H](O)C[C@@H]1CC[C@@H]1[C@@H]2CC[C@]2(C)C(=O)CC[C@@H]12 [3alpha-Hydroxy-5alpha-androstan-17-one] | 176.71 Å² | – | –
CCCCCCCCCC(=O)O [Capric acid] | 146.87 Å² | – | –
O=C(O)c1cccc(O)c1O [2,3-Dihydroxybenzoic acid] | 118.42 Å² | – | –
COc1cc(C(O)C(=O)O)ccc1O (racemic) [DL-Vanillylmandelic acid] | 140.9 Å² | – | collision cross section (N2) ([M+H-H2O]+): 133.3 Å²
O=C(O)[C@H]1OC(O)[C@H](O)[C@@H](O)[C@H]1O (stereo partly drawn) [D-galacturonic acid] | 128.3 Å² | – | collision cross section (N2) ([M+Na]+): 143.7 Å²
CC(C)=CCC/C(C)=C/CC/C(C)=C/COP(=O)(O)OP(=O)(O)O [Farnesyl pyrophosphate] | 183.85 Å² | – | –
COC(=O)[C@H](Cc1ccccc1)NC(=O)[C@@H](N)CC(=O)O [Aspartame] | 166.71 Å² | 169.6 Å² | –
C[C@]12C[C@H](O)[C@H]3[C@@H](CCC4=CC(=O)CC[C@@]43C)[C@@H]1CC[C@@H]2C(=O)CO [Corticosterone] | 186.46 Å² | 186.8 Å² | –
Nc1ncnc2c1ncn2[C@H]1C[C@H](O)[C@@H](COP(=O)(O)OP(=O)(O)OP(=O)(O)O)O1 [2'-Deoxyadenosine 5'-triphosphate] | 183.78 Å² | – | –
O=C(O)Cc1c[nH]c2ccccc12 [Indoleacetic acid] | – | 136.2 Å² | –
O=C(O)CCc1ccc(O)c(O)c1 [3,4-Dihydroxyhydrocinnamic acid] | 133.05 Å² | – | –
C[C@H](CCCC(C)(C)O)[C@H]1CC[C@H]2[C@@H]3CC=C4C[C@@H](O)CC[C@]4(C)[C@H]3CC[C@]12C [25-Hydroxycholesterol] | 202.81 Å² | – | –
CCCCC/C=C\C/C=C\C/C=C\CCCCC(=O)O [(6,9,12)-Linolenic acid] | – | 174.1 Å² | –
Cn1c(=O)c2[nH]c(=O)[nH]c2n(C)c1=O [1,3-Dimethyluric acid] | 134.24 Å² | 142.5 Å² | –
COc1cc(CC(=O)O)ccc1O [Homovanillic acid] | 134.15 Å² | – | –
OC[C@@H](O)[C@@H](O)[C@H](O)[C@@H](O)CO [D-Sorbitol] | 129.64 Å² | – | collision cross section (N2) ([M+Na]+): 142.5 Å²
Cn1c(=O)[nH]c2nc[nH]c2c1=O [1-Methylxanthine] | 124.23 Å² | – | –
